In the NIST ThermoML archive (doi:10.1021/je060271a):
“And” between values parts separate entries of the source, which are not always exact repeats. Equal entries are not always repeated. ± gives the expanded uncertainty stated by the source.

Conditions: 343.15 K, Liquid, Vibrating tube method

CCCCCC(=O)OCC(COC(=O)CCCCC)(COC(=O)CCCCC)COC(=O)CCCCC [pentaerythritol tetrahexanoate]
Conditions	mass density
398.2 kPa	957.4 ± 1.2 kg/m3
398.4 kPa	957.4 ± 1.2 kg/m3
399.3 kPa	957.3 ± 1.2 kg/m3
399.8 kPa	957.5 ± 1.2 kg/m3
400.1 kPa	957.4 ± 1.2 kg/m3
400.6 kPa	957.2 ± 1.2 kg/m3
400.8 kPa	957.4 ± 1.2 kg/m3
401.5 kPa	957.5 ± 1.2 kg/m3
402 kPa	957.5 ± 1.2 kg/m3
402.4 kPa	957.3 ± 1.2 kg/m3
402.9 kPa	957.6 ± 1.2 kg/m3
403.4 kPa	957.4 ± 1.2 kg/m3
403.9 kPa	957.4 ± 1.2 kg/m3
404.3 kPa	957.5 ± 1.2 kg/m3
404.8 kPa	957.4 ± 1.2 kg/m3
407.4 kPa	957.3 ± 1.2 kg/m3
407.9 kPa	957.4 ± 1.2 kg/m3
408.6 kPa	957.4 ± 1.2 kg/m3
409 kPa	957.3 ± 1.2 kg/m3
409.2 kPa	957.4 ± 1.2 kg/m3
409.9 kPa	957.3 ± 1.2 kg/m3
410.4 kPa	957.3 ± 1.2 kg/m3
413 kPa	957.4 ± 1.2 kg/m3
413.5 kPa	957.5 ± 1.2 kg/m3
413.9 kPa	957.4 ± 1.2 kg/m3
414.4 kPa	957.4 ± 1.2 kg/m3
414.9 kPa	957.3 ± 1.2 kg/m3
415.1 kPa	957.5 ± 1.2 kg/m3
418 kPa	957.4 ± 1.2 kg/m3
418.5 kPa	957.5 ± 1.2 kg/m3
419.6 kPa	957.4 ± 1.2 kg/m3
419.8 kPa	957.4 ± 1.2 kg/m3
420.3 kPa	957.3 ± 1.2 kg/m3
421.3 kPa	957.3 ± 1.2 kg/m3
421.5 kPa	957.3 ± 1.2 kg/m3
423.4 kPa	957.3 ± 1.2 kg/m3
423.9 kPa	957.3 ± 1.2 kg/m3
424.1 kPa	957.4 ± 1.2 kg/m3
425.1 kPa	957.3 ± 1.2 kg/m3
425.5 kPa	957.4 ± 1.2 kg/m3
425.7 kPa	957.4 ± 1.2 kg/m3
426.2 kPa	957.4 ± 1.2 kg/m3
426.7 kPa	957.3 ± 1.2 kg/m3
427.2 kPa	957.3 ± 1.2 kg/m3
427.9 kPa	957.5 ± 1.2 kg/m3
428.4 kPa	957.4 ± 1.2 kg/m3
429 kPa	957.5 ± 1.2 kg/m3
429.5 kPa	957.4 ± 1.2 kg/m3
429.8 kPa	957.5 ± 1.2 kg/m3
430.4 kPa	957.5 ± 1.2 kg/m3
430.9 kPa	957.4 ± 1.2 kg/m3
431.6 kPa	957.4 ± 1.2 kg/m3 and 957.5 ± 1.2 kg/m3
431.9 kPa	957.5 ± 1.2 kg/m3
432.6 kPa	957.4 ± 1.2 kg/m3
432.8 kPa	957.5 ± 1.2 kg/m3
433 kPa	957.3 ± 1.2 kg/m3
435 kPa	957.5 ± 1.2 kg/m3
437.5 kPa	957.5 ± 1.2 kg/m3
440.8 kPa	957.4 ± 1.2 kg/m3
443.6 kPa	957.3 ± 1.2 kg/m3
446.3 kPa	957.4 ± 1.2 kg/m3
449.5 kPa	957.5 ± 1.2 kg/m3
452.2 kPa	957.5 ± 1.2 kg/m3
455.6 kPa	957.4 ± 1.2 kg/m3
458.5 kPa	957.4 ± 1.2 kg/m3
461.8 kPa	957.4 ± 1.2 kg/m3
464.6 kPa	957.3 ± 1.2 kg/m3
468.2 kPa	957.4 ± 1.2 kg/m3
471.5 kPa	957.4 ± 1.2 kg/m3
474.8 kPa	957.4 ± 1.2 kg/m3
477.4 kPa	957.5 ± 1.2 kg/m3
481.3 kPa	957.6 ± 1.2 kg/m3
484.6 kPa	957.4 ± 1.2 kg/m3
487.7 kPa	957.3 ± 1.2 kg/m3
491.5 kPa	957.4 ± 1.2 kg/m3
525.8 kPa	957.3 ± 1.2 kg/m3
529.4 kPa	957.6 ± 1.2 kg/m3
533.4 kPa	957.5 ± 1.2 kg/m3
538.1 kPa	957.5 ± 1.2 kg/m3
545.9 kPa	957.4 ± 1.2 kg/m3
550.2 kPa	957.6 ± 1.2 kg/m3
555.3 kPa	957.6 ± 1.2 kg/m3
559.3 kPa	957.5 ± 1.2 kg/m3
564 kPa	957.5 ± 1.2 kg/m3
569 kPa	957.5 ± 1.2 kg/m3
573.7 kPa	957.5 ± 1.2 kg/m3
578 kPa	957.5 ± 1.2 kg/m3
584 kPa	957.6 ± 1.2 kg/m3
588.1 kPa	957.6 ± 1.2 kg/m3
593 kPa	957.5 ± 1.2 kg/m3
603.9 kPa	957.5 ± 1.2 kg/m3
609 kPa	957.6 ± 1.2 kg/m3
614.9 kPa	957.5 ± 1.2 kg/m3
620.1 kPa	957.6 ± 1.2 kg/m3
625 kPa	957.5 ± 1.2 kg/m3
631.2 kPa	957.5 ± 1.2 kg/m3
636.6 kPa	957.6 ± 1.2 kg/m3
641.6 kPa	957.6 ± 1.2 kg/m3
647 kPa	957.7 ± 1.2 kg/m3
653.6 kPa	957.6 ± 1.2 kg/m3
659.4 kPa	957.5 ± 1.2 kg/m3
666.5 kPa	957.5 ± 1.2 kg/m3
672.6 kPa	957.7 ± 1.2 kg/m3
678.3 kPa	957.5 ± 1.2 kg/m3
684.7 kPa	957.7 ± 1.2 kg/m3
691 kPa	957.6 ± 1.2 kg/m3
697.2 kPa	957.5 ± 1.2 kg/m3
704.9 kPa	957.6 ± 1.2 kg/m3
711.5 kPa	957.6 ± 1.2 kg/m3
719.3 kPa	957.5 ± 1.2 kg/m3
725.9 kPa	957.6 ± 1.2 kg/m3
732.7 kPa	957.6 ± 1.2 kg/m3
739.6 kPa	957.6 ± 1.2 kg/m3
747.6 kPa	957.6 ± 1.2 kg/m3
786 kPa	957.7 ± 1.2 kg/m3
793.7 kPa	957.6 ± 1.2 kg/m3
801.8 kPa	957.7 ± 1.2 kg/m3
809.8 kPa	957.8 ± 1.2 kg/m3
818 kPa	957.6 ± 1.2 kg/m3
828.1 kPa	957.7 ± 1.2 kg/m3
836.4 kPa	957.7 ± 1.2 kg/m3
845.3 kPa	957.6 ± 1.2 kg/m3
855.7 kPa	957.8 ± 1.2 kg/m3
864.5 kPa	957.8 ± 1.2 kg/m3
873.7 kPa	957.7 ± 1.2 kg/m3
883.3 kPa	957.6 ± 1.2 kg/m3
894.6 kPa	957.6 ± 1.2 kg/m3
904.5 kPa	957.9 ± 1.2 kg/m3
915.8 kPa	957.7 ± 1.2 kg/m3
967 kPa	957.8 ± 1.2 kg/m3
977.1 kPa	957.8 ± 1.2 kg/m3
989.1 kPa	957.8 ± 1.2 kg/m3
999.5 kPa	957.8 ± 1.2 kg/m3
1011.5 kPa	957.9 ± 1.2 kg/m3
1022.2 kPa	957.7 ± 1.2 kg/m3
1032.7 kPa	958 ± 1.2 kg/m3
1043.4 kPa	957.9 ± 1.2 kg/m3
1053.7 kPa	957.9 ± 1.2 kg/m3
1066.4 kPa	958 ± 1.2 kg/m3
1076.6 kPa	957.9 ± 1.2 kg/m3
1087.5 kPa	957.9 ± 1.2 kg/m3
1100.4 kPa	957.8 ± 1.2 kg/m3
1110.6 kPa	958 ± 1.2 kg/m3
1121.6 kPa	957.9 ± 1.2 kg/m3
